Results: PubChem BioAssay (NCI)
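Assay format: 96-well plates, 48-hour exposure. Here, GI50 denotes the concentration required for 50% inhibition of growth. TGI is the concentration that stops growth completely.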

What was measured:
Experiment in all cases: DTP human tumour cell line panel, 48 h
[1] = tested on: SNB-19 CNS
[2] = tested on: CAKI-1 renal
[3] = tested on: UACC-257 melanoma
[4] = tested on: EKVX NSCLC
[5] = tested on: SW-620 colon
[6] = tested on: M14 melanoma
[7] = tested on: MOLT-4 leukemia
[8] = tested on: OVCAR-4 ovarian
[9] = tested on: SF-295 CNS
[10] = tested on: KM12 colon
[11] = tested on: NCI-H226 lung
[12] = tested on: SK-MEL-5 melanoma
[13] = tested on: SF-268 CNS
[14] = tested on: 786-0 renal
[15] = tested on: HS 578T breast
[16] = tested on: UO-31 renal
[17] = tested on: MDA-MB-435
[18] = tested on: HOP-62 NSCLC
[19] = tested on: OVCAR-8 ovarian
[20] = tested on: SR leukemia
[21] = tested on: SNB-75 CNS
[22] = tested on: NCI-H23 lung
[23] = tested on: SF-539 CNS
[24] = tested on: SN12C renal
[25] = tested on: SK-MEL-2 melanoma
[26] = tested on: RPMI-8226 leukemia
[27] = tested on: MCF7 breast
[28] = tested on: U251 CNS
[29] = tested on: A498 renal
[30] = tested on: PC-3 prostate
[31] = tested on: LOX IMVI melanoma
[32] = tested on: HL-60(TB) leukemia
[33] = tested on: RXF 393 renal
[34] = tested on: IGROV1 ovarian
[35] = tested on: COLO 205 colon
[36] = tested on: MDA-MB-231 breast
[37] = tested on: SK-MEL-28 melanoma
[38] = tested on: HCT-116 colon
[39] = tested on: CCRF-CEM leukemia
[40] = tested on: TK-10 renal
[41] = tested on: SK-OV-3 ovarian
[42] = tested on: DU-145 prostate
[43] = tested on: T-47D breast
[44] = tested on: UACC-62 melanoma
[45] = tested on: K-562 leukemia
[46] = tested on: ACHN renal
[47] = tested on: MALME-3M melanoma
[48] = tested on: NCI-H522 lung
[49] = tested on: NCI-H460 lung
[50] = tested on: OVCAR-3 ovarian
[51] = tested on: BT-549 breast
[52] = tested on: OVCAR-5 ovarian
[53] = tested on: HCC-2998 colon
[54] = tested on: A549 NSCLC
[55] = tested on: NCI/ADR-RES ovarian
[56] = tested on: HOP-92 NSCLC
[57] = tested on: HT29 colon
[58] = tested on: HCT-15 colon

N#Cc1cccc(/C(N)=N/C(N)=N/c2nc3ccccc3s2)c1
GI50 [1]: 0.614 µM | TGI [1]: > 72.6 µM | GI50 [2]: 0.538 µM | TGI [2]: > 34.3 µM | GI50 [3]: > 100 µM | TGI [3]: > 100 µM | GI50 [4]: 2.41 µM | TGI [4]: > 100 µM | GI50 [5]: 0.485 µM | TGI [5]: > 100 µM | GI50 [6]: 0.513 µM | TGI [6]: > 100 µM | GI50 [7]: 0.657 µM | TGI [7]: > 25.6 µM | GI50 [8]: 2.74 µM | TGI [8]: > 100 µM | GI50 [9]: 0.504 µM | TGI [9]: > 41 µM | GI50 [10]: 0.511 µM | TGI [10]: > 100 µM | GI50 [11]: 1.22 µM | TGI [11]: 73.8 µM | GI50 [12]: 0.699 µM | TGI [12]: > 28.2 µM | GI50 [13]: 1.7 µM | TGI [13]: > 71.7 µM | GI50 [14]: 0.733 µM | TGI [14]: > 77.7 µM | GI50 [15]: 0.531 µM | TGI [15]: > 43.3 µM | GI50 [16]: 1.81 µM | TGI [16]: > 100 µM | GI50 [17]: 0.211 µM | TGI [17]: 0.776 µM | GI50 [18]: 0.609 µM | TGI [18]: 18.2 µM | GI50 [19]: 1.59 µM | TGI [19]: > 100 µM | GI50 [20]: 0.437 µM | TGI [20]: > 100 µM | GI50 [21]: 0.213 µM | TGI [21]: 9.33 µM | GI50 [22]: 1.79 µM | TGI [22]: > 100 µM | GI50 [23]: 0.457 µM | TGI [23]: 4.05 µM | GI50 [24]: 1.13 µM | TGI [24]: > 100 µM | GI50 [25]: 1.33 µM | TGI [25]: > 60.7 µM | GI50 [26]: 0.686 µM | TGI [26]: > 100 µM | GI50 [27]: 0.427 µM | TGI [27]: > 100 µM | GI50 [28]: 0.591 µM | TGI [28]: > 54.4 µM | GI50 [29]: 1.13 µM | TGI [29]: 11.6 µM | GI50 [30]: 0.84 µM | TGI [30]: > 100 µM | GI50 [31]: 0.614 µM | TGI [31]: > 100 µM | GI50 [32]: 0.311 µM | GI50 [33]: 0.388 µM | TGI [33]: 2.42 µM | GI50 [34]: 0.826 µM | TGI [34]: > 100 µM | GI50 [35]: 1.02 µM | TGI [35]: > 100 µM | GI50 [36]: 2.64 µM | TGI [36]: > 100 µM | GI50 [37]: 5.33 µM | TGI [37]: > 100 µM | GI50 [38]: 0.487 µM | TGI [38]: > 100 µM | GI50 [39]: 0.551 µM | TGI [39]: > 100 µM | GI50 [40]: 9.17 µM | TGI [40]: > 92.4 µM | GI50 [41]: 1.79 µM | TGI [41]: 40.7 µM | GI50 [42]: 1.56 µM | TGI [42]: > 100 µM | GI50 [43]: 0.659 µM | TGI [43]: > 100 µM | GI50 [44]: 0.418 µM | TGI [44]: > 71.5 µM | GI50 [45]: 0.316 µM | TGI [45]: > 100 µM | GI50 [46]: 0.855 µM | TGI [46]: > 100 µM | GI50 [47]: 1.57 µM | TGI [47]: > 66.7 µM | GI50 [48]: 0.481 µM | TGI [48]: > 100 µM | GI50 [49]: 0.479 µM | TGI [49]: > 100 µM | GI50 [50]: 0.508 µM | TGI [50]: > 23.2 µM | GI50 [51]: 1.03 µM | TGI [51]: > 59.3 µM | GI50 [52]: 3.65 µM | TGI [52]: > 100 µM | GI50 [53]: 2.85 µM | TGI [53]: > 100 µM | GI50 [54]: 3.48 µM | TGI [54]: > 100 µM | GI50 [55]: 0.437 µM | TGI [55]: > 100 µM | GI50 [56]: 2.75 µM | TGI [56]: > 60.6 µM | GI50 [57]: 0.45 µM | TGI [57]: > 100 µM | GI50 [58]: 0.443 µM | TGI [58]: > 100 µM
